US20230391768A2, “IMIDAZOPYRIDINE DERIVATIVES AND AZA-IMIDAZOPYRIDINE DERIVATIVES AS JANUS KINASE 2 INHIBITORS AND USES THEREOF” (Dana-Farber Cancer Institute, Inc., priority 2018, published 2023)

Assays:
Test in all cases: KINOMEscan
Type in all cases: binding
HCK = HCK (Homo sapiens (Human), UniProt P08631); settings: read-out: percent of control
Method: (§1) In vitro profiling of Compound I-2 (1 μM) was performed using the DiscoveRx KINOMEscan® platform.

MAPKAPK5 = MAPKAPK5 (Homo sapiens (Human), UniProt Q8IW41); settings: read-out: percent of control
Method: as §1

ABL2 = ABL2 (Homo sapiens (Human), UniProt P42684); settings: read-out: percent of control
Method: as §1

[1] = target: ABL1(Q252H)-phosphorylated (Homo sapiens (Human), UniProt P00519, Q252H); settings: read-out: percent of control
Method: as §1

ARK5 = ARK5 (Homo sapiens (Human), UniProt O60285); settings: read-out: percent of control
Method: as §1

AAKI = AAKI (Homo sapiens (Human), UniProt Q2M2I8); settings: read-out: percent of control
Chain of AAKI (Q2M2I8 whole entry): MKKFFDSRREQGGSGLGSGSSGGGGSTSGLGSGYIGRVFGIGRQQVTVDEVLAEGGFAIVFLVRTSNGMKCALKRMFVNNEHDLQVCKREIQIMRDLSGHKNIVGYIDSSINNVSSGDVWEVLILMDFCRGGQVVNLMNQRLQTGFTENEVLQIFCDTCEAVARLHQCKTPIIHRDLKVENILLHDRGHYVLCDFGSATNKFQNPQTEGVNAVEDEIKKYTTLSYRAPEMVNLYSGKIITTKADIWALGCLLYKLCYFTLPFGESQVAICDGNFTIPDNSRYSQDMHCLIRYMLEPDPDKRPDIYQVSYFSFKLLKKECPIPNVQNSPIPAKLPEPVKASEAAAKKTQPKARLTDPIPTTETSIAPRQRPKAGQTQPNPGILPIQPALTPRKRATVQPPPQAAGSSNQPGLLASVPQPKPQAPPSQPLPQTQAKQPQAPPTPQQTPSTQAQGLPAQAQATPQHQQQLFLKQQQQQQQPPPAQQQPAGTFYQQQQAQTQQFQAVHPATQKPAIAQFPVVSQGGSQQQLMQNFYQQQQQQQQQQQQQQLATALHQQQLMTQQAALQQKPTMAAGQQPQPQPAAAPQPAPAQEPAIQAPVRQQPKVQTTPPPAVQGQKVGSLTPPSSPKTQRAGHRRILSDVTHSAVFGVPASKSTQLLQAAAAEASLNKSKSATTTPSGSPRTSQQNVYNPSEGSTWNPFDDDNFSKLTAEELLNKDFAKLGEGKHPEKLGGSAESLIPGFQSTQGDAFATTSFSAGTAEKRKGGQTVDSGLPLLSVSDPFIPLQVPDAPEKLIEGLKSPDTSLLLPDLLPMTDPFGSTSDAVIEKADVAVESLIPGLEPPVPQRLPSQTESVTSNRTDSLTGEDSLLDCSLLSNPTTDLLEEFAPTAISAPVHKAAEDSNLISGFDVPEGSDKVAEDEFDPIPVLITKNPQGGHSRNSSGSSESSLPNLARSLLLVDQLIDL
Method: as §1

WEE1 = WEE1 (Homo sapiens (Human), UniProt P30291); settings: read-out: percent of control
Method: as §1

[2] = target: RSK2 (Kin.Dom.2-C-terminal) (Homo sapiens (Human), UniProt P51812); settings: read-out: percent of control
Chain of RSK2 (Kin.Dom.2-C-terminal) (P51812 422-679): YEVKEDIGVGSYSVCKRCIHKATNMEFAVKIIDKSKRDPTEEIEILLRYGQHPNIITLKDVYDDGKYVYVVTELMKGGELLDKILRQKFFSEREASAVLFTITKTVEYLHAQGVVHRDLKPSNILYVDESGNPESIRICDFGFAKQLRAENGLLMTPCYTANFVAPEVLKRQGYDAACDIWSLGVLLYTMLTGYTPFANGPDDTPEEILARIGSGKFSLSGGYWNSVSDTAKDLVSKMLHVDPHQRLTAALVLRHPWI
Method: as §1

BTK = BTK (Homo sapiens (Human), UniProt Q06187); settings: read-out: percent of control
Method: as §1

GRK7 = GRK7 (Homo sapiens (Human), UniProt Q8WTQ7); settings: read-out: percent of control
Method: as §1

RIPK1 = RIPK1 (Homo sapiens (Human), UniProt Q13546); settings: read-out: percent of control
Method: as §1

EPHA5 = EPHA5 (Homo sapiens (Human), UniProt P54756); settings: read-out: percent of control
Method: as §1

CDK4-cyclinD1 = CDK4-cyclinD1 (Homo sapiens (Human), UniProt P11802); settings: read-out: percent of control
Method: as §1

PHKG1 = PHKG1 (Homo sapiens (Human), UniProt Q16816); settings: read-out: percent of control
Method: as §1

[3] = target: ABL1(F317I)-phosphorylated (Homo sapiens (Human), UniProt P00519, F317I); settings: read-out: percent of control
Method: as §1

[4] = target: JAK3(JH1domain-catalytic) (Homo sapiens (Human), UniProt P52333); settings: for remaining binding at 1 µM: JAK3(JH1domain-catalytic), read-out: percent of control
Chain of JAK3(JH1domain-catalytic) (P52333 822-1111): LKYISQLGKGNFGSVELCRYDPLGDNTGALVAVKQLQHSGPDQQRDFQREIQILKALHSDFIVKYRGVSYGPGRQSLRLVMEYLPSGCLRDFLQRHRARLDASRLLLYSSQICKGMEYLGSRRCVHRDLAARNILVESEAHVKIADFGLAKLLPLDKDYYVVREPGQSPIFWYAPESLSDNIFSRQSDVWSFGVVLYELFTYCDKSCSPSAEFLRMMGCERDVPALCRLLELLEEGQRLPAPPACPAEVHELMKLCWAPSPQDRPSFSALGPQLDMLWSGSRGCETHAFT
Method: as §1

PDGFRB = PDGFRB (Homo sapiens (Human), UniProt P09619); settings: read-out: percent of control
Method: as §1

KIT(A829P) = KIT(A829P) (Homo sapiens (Human), UniProt P10721, A829P); settings: read-out: percent of control
Method: as §1

CDK4 = CDK4 (Homo sapiens (Human), UniProt P11802); settings: read-out: percent of control
Method: as §1

EPHA6 = EPHA6 (Homo sapiens (Human), UniProt Q9UF33); settings: read-out: percent of control
Method: as §1

MST2 = MST2 (Homo sapiens (Human), UniProt Q13188); settings: read-out: percent of control
Method: as §1

CDK8 = CDK8 (Homo sapiens (Human), UniProt P49336); settings: read-out: percent of control
Method: as §1

ADCK4 = ADCK4 (Homo sapiens (Human), UniProt Q96D53); settings: read-out: percent of control
Method: as §1

AXL = AXL (Homo sapiens (Human), UniProt P30530); settings: read-out: percent of control
Chain of AXL (P30530 26-894): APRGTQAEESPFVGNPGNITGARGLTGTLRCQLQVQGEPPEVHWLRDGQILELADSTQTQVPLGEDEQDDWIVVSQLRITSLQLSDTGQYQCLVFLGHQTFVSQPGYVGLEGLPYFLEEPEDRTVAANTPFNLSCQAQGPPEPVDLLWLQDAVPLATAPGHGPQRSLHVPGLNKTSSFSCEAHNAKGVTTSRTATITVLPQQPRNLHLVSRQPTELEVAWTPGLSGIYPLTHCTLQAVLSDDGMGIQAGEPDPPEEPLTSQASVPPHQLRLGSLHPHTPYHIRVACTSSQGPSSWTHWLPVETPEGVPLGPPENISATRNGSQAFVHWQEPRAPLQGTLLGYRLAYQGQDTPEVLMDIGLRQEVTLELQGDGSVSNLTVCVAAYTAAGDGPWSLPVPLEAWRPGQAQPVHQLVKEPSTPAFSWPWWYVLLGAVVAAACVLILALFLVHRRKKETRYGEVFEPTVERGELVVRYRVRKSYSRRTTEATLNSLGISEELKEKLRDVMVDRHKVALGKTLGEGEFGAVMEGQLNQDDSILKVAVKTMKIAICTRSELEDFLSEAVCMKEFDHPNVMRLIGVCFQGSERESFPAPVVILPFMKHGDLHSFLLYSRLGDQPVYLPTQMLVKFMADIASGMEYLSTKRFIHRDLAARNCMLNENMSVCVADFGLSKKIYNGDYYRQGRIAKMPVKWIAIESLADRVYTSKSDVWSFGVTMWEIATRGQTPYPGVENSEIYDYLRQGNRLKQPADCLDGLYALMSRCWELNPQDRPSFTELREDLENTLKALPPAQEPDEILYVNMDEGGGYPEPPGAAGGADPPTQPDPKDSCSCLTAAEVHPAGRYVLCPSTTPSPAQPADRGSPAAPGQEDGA
Method: as §1

FLT3 (R834Q) = FLT3 (R834Q) (Homo sapiens (Human), UniProt P36888, R834Q); settings: read-out: percent of control
Method: as §1

[5] = target: JAK1(JH2domainpseudokinase) (Homo sapiens (Human), UniProt P23458); settings: read-out: percent of control
Method: as §1

EPHA8 = EPHA8 (Homo sapiens (Human), UniProt P29322); settings: read-out: percent of control
Method: as §1

EGFR(L858R) = EGFR(L858R) (Homo sapiens (Human), UniProt P00533, L858R); settings: read-out: percent of control
Method: as §1

CSNK1A1 = CSNK1A1 (Homo sapiens (Human), UniProt P48729); settings: read-out: percent of control
Chain of CSNK1A1 (P48729 whole entry): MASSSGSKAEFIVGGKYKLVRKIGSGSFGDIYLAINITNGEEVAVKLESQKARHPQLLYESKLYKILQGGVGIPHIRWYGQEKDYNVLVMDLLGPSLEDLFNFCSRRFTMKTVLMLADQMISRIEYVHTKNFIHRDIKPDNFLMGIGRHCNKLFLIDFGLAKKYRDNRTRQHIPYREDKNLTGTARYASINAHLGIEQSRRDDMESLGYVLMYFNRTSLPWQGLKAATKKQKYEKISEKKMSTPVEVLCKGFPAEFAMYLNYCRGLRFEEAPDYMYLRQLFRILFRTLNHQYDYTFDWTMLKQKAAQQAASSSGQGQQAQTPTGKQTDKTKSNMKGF
Method: as §1

ERK2 = ERK2 (Homo sapiens (Human), UniProt P28482); settings: read-out: percent of control
Method: as §1

PCTK3 = PCTK3 (Homo sapiens (Human), UniProt Q07002); settings: read-out: percent of control
Method: as §1

PIK3CD = PIK3CD (Homo sapiens (Human), UniProt O00329); settings: read-out: percent of control
Method: as §1

PIK3CA(M1043I) = PIK3CA(M1043I) (Homo sapiens (Human), UniProt P42336, M1043I); settings: read-out: percent of control
Method: as §1

TIE1 = TIE1 (Homo sapiens (Human), UniProt P35590); settings: read-out: percent of control
Chain of TIE1 (P35590 22-1138): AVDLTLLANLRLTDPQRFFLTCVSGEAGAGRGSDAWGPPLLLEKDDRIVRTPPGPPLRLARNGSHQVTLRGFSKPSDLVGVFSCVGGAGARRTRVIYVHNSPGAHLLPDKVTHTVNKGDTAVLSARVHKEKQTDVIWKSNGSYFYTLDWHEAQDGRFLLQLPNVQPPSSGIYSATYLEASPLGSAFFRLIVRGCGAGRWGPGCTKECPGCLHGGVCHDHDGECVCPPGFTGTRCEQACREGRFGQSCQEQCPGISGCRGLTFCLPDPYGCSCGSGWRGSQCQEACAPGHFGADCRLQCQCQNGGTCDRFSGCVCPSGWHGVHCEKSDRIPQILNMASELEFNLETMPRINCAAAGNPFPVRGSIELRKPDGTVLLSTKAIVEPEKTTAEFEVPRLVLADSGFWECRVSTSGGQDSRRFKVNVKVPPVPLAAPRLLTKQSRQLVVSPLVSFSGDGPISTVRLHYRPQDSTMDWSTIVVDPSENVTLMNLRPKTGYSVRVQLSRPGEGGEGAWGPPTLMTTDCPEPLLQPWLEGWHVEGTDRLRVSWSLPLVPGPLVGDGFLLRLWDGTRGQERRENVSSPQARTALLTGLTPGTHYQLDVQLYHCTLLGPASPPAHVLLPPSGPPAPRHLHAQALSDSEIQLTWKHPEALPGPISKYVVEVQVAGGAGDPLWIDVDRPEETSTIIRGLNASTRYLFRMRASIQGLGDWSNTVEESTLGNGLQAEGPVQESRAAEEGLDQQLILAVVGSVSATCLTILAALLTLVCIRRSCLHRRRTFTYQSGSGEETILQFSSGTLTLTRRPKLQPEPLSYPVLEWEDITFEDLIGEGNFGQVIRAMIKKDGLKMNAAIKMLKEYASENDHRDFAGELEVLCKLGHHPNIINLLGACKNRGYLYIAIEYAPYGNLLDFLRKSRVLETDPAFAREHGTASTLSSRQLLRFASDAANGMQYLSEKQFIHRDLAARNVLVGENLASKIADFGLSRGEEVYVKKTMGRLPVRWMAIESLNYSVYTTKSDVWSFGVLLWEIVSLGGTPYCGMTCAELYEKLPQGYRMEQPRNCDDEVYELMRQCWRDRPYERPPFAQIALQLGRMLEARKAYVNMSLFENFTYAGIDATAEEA
Method: as §1

LATS1 = LATS1 (Homo sapiens (Human), UniProt O95835); settings: read-out: percent of control
Chain of LATS1 (O95835 whole entry): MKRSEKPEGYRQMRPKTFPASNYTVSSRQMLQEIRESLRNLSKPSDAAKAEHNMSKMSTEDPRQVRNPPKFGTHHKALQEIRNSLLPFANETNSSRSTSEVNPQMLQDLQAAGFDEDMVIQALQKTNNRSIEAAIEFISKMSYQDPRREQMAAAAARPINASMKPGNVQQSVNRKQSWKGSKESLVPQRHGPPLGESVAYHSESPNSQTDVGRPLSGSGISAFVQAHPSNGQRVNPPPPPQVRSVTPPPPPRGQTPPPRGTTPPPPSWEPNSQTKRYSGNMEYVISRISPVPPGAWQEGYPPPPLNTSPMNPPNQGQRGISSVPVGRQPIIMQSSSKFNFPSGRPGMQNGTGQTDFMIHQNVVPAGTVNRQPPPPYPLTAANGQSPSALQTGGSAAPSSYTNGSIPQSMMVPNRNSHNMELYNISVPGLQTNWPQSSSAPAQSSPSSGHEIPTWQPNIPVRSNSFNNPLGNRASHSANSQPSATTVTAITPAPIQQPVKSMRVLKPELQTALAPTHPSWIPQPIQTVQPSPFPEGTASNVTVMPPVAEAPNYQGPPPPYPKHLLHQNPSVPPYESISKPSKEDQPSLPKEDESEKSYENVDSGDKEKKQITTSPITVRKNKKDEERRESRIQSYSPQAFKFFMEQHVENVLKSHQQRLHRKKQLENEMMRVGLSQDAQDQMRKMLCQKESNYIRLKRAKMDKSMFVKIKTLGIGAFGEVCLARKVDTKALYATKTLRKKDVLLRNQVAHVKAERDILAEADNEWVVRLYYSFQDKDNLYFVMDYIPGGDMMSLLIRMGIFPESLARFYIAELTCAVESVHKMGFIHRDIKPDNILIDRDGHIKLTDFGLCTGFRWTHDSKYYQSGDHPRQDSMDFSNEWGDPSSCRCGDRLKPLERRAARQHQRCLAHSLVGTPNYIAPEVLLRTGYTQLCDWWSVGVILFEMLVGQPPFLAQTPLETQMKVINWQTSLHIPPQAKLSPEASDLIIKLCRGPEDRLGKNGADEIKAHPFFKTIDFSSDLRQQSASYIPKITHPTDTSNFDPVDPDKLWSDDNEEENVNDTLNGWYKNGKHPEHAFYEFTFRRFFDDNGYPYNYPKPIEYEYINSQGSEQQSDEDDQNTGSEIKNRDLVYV
Method: as §1

ERBB2 = ERBB2 (Homo sapiens (Human), UniProt P04626); settings: read-out: percent of control
Method: as §1

[6] = target: ABL1(H396P)-nonphosphorylated (Homo sapiens (Human), UniProt P00519, H396P); settings: read-out: percent of control
Method: as §1

ABL1-phosphorylated = ABL1-phosphorylated (Homo sapiens (Human), UniProt P00519); settings: read-out: percent of control
Method: as §1

| SMILES | remaining binding at 1 µM (HCK) [%] | remaining binding at 1 µM (MAPKAPK5) [%] | remaining binding at 1 µM (ABL2) [%] | remaining binding at 1 µM [1] [%] | remaining binding at 1 µM (ARK5) [%] | remaining binding at 1 µM (AAKI) [%] | remaining binding at 1 µM (WEE1) [%] | remaining binding at 1 µM [2] [%] | remaining binding at 1 µM (BTK) [%] | remaining binding at 1 µM (GRK7) [%] | remaining binding at 1 µM (RIPK1) [%] | remaining binding at 1 µM (EPHA5) [%] | remaining binding at 1 µM (CDK4-cyclinD1) [%] | remaining binding at 1 µM (PHKG1) [%] | remaining binding at 1 µM [3] [%] | remaining binding at 1 µM [4] [%] | remaining binding at 1 µM (PDGFRB) [%] | remaining binding at 1 µM (KIT(A829P)) [%] | remaining binding at 1 µM (CDK4) [%] | remaining binding at 1 µM (EPHA6) [%] | further results |
| --- | --- | --- | --- | --- | --- | --- | --- | --- | --- | --- | --- | --- | --- | --- | --- | --- | --- | --- | --- | --- | --- |
| CCN1CCN(Cc2cc(NC(=O)c3ccc(C)c(-c4ccc5nc(NC(=O)C6CC6)cn5n4)c3)cc(C(F)(F)F)c2)CC1 [Compound I-2, 3-(2-(cyclopropanecarboxamido)imidazo[1,2-b]pyridazin-6-yl)-N-(3-((4-ethylpiperazin-1-yl)methyl)-5-(trifluoromethyl)phenyl)-4-methylbenzamide] | 0 | 72 | 0.4 | 0.35 | 94 | 100 | 94 | 78 | 68 | 100 | 0.45 | 2.3 | 19 | 99 | 5.1 | 0 | 0 | 0 | 46 | 5.2 | selectivity for JAK3 over JAK2, JAK1, and TYK2 ([4]; KINOMEscan, 1 μM): more selective for JAK3 over JAK2, JAK1, and TYK2; remaining binding at 1 µM (MST2): 50%; remaining binding at 1 µM (CDK8): 4.8%; remaining binding at 1 µM (ADCK4): 75%; remaining binding at 1 µM (AXL): 2.1%; remaining binding at 1 µM (FLT3 (R834Q)): 1.5%; remaining binding at 1 µM [5]: 100%; remaining binding at 1 µM (EPHA8): 0%; remaining binding at 1 µM (EGFR(L858R)): 76%; remaining binding at 1 µM (CSNK1A1): 73%; remaining binding at 1 µM (ERK2): 100%; remaining binding at 1 µM (PCTK3): 4.8%; remaining binding at 1 µM (PIK3CD): 100%; remaining binding at 1 µM (PIK3CA(M1043I)): 100%; remaining binding at 1 µM (TIE1): 0%; remaining binding at 1 µM (LATS1): 87%; remaining binding at 1 µM (ERBB2): 82%; remaining binding at 1 µM [6]: 0%; remaining binding at 1 µM (ABL1-phosphorylated): 0.1% |
| CCN1CCN(Cc2cc(NC(=O)c3ccc(C)c(-c4ccc5nc(NC(=O)C6CC6)cn5c4)c3)cc(C(F)(F)F)c2)CC1 [Compound I-6, 3-(2-(cyclopropanecarboxamido)imidazo[1,2-a]pyridin-6-yl)-N-(3-((4-ethylpiperazin-1-yl)methyl)-5-(trifluoromethyl)phenyl)-4-methylbenzamide] | 0.05 | 100 | 0.4 | 0.6 | 100 | 89 | 100 | 100 | 87 | 97 | 0.75 | 2.5 | 17 | 93 | 9.4 | 0 | 0 | 12 | 36 | 0.75 | remaining binding at 1 µM (MST2): 97%; remaining binding at 1 µM (CDK8): 3%; remaining binding at 1 µM (ADCK4): 91%; remaining binding at 1 µM (AXL): 3.9%; remaining binding at 1 µM (FLT3 (R834Q)): 2.1%; remaining binding at 1 µM [5]: 72%; remaining binding at 1 µM (EPHA8): 0%; remaining binding at 1 µM (EGFR(L858R)): 71%; remaining binding at 1 µM (CSNK1A1): 100%; remaining binding at 1 µM (ERK2): 100%; remaining binding at 1 µM (PCTK3): 27%; remaining binding at 1 µM (PIK3CD): 69%; remaining binding at 1 µM (PIK3CA(M1043I)): 73%; remaining binding at 1 µM (TIE1): 4%; remaining binding at 1 µM (LATS1): 85%; remaining binding at 1 µM (ERBB2): 71%; remaining binding at 1 µM [6]: 0%; remaining binding at 1 µM (ABL1-phosphorylated): 0.1% |
